Assay results from patent US20220402883A1, “COMPOUNDS AND METHODS FOR MODULATING RNA FUNCTION” (Arrakis Therapeutics, Inc., priority 2016, published 2022).
Counter-ions that a name gives are not always drawn.

Legend:
41CAG RNA (476 nt) = assay: NMR competition experiments (WaterLOGSY); assay type: binding; details: 100 μM compound, 2.5 μM RNA
Description: Competition experiments were also performed. Test Sample: 2.5 μM 41CAG RNA (476 nt) was combined with the following: 100 μM HP-AC008002-E01 (A); +/−200-400 μM HP-AC008001-E02 (B); and +/−200-400 μM HP-AT005003-C03 (C). ^1H 1D Watergate & WaterLOGSY spectra recorded of HP-AC008002-E01 are used as a reference.
In a further experiment, as Test Sample 2.5 μM 41CAG RNA (476 nt) was used in the presence of: 100 μM HP-AC008001-E02 (B) or 100 μM HP-AT005003-C03 (C); +/−200-400 μM HP-AC008002-E01 (A). ^1H 1D Watergate and WaterLOGSY spectra recorded single cmpds were used as a reference.
In a further experiment, as Test Sample: 2.5 μM 41CAG RNA (476 nt) was used in the presence of: 100 μM HP-AC008001-E02 (B)+/−200-400 μM HP-AT005003-C03 (C). ^1H 1D Watergate & WaterLOGSY spectra recorded of single cmpd HP-AC008001-E02 were used as a reference.

[1] = tested on: 17CAG and 41CAG RNA (httmRNA); assay: Ligand observed NMR binding assay for CAG repeat RNA; details: 3 μM RNA, 200 μM compound, 288 K
Description: Following the above procedure, various tool and test compounds were assayed for binding. In a first series of experiments, compounds were tested for binding to 17CAG or 41CAG (sample was 3 μM in RNA). […] However, several of the compounds did show significant changes in their signals in the presence of the two RNA target species.
Purpose: Test direct binding of compounds for httmRNA (construct with 41 CAG repeats 474 nt) and others as described below. Ligand observed NMR assay to test direct binding of fragments to RNA target (e.g. construct with 41 CAG repeats 474 nt). Single compound hits were identified for further characterization by orthogonal assay (e.g. surface plasmon resonance, SPR). Ligand observed assay was used for primary screen and deconvolution into single fragment hits. Established experiments were eventually used for group epitope mapping.
This assay tests for direct binding of compounds to httmRNA and may be adapted for other repeat RNAs. Compounds are tested in pools (i.e. pool size of 12 fragments in each sample in the primary screen and smaller pool sizes during deconvolution and eventually single compound measurements).
Sample buffer: 10 mM Tris-HCl, pH 8.0, 0.78 g [MW: 157.56 g/mol]; 75 mM KCl, 2.79 g [MW: 74.55 g/mol]; 3 mM MgCl2, 0.14 g [MW: 95.21 g/mol]; fill up to 500 mL with Millipore H2O.
Dried RNA pellet is solubilized in sample buffer 10 mM Tris-HCl pH 8.0, 75 mM KCl, 3 mM MgCl2. RNA aliquot at 13.9 μM (stock concentration) is denatured at 95° C. for 3 min and snap-cooled on ice for 3 min, and refolded at 37° C. for 30 min.
Final concentrations in the sample: 200 μM each fragment and 3 μM RNA target molecule.
Sample is placed into magnet and temperature adjusted to 288 K. Spectrometer frequency at 600 MHz is matched and tuned. Magnetic field is shimmed to homogenize magnetic field around the sample.
Sequence of experiments includes a Proton 1D experiment with a Watergate sequence for water suppression, a WaterLOGSY (WLOGSY) and a 1D Saturation transfer difference (STD) experiment to test for direct binding of the compounds to the RNA.
Details for 1D Watergate experiment: For each 1D WATERGATE spectrum a total of 8192 complex points in f1 (^1H) with 128 scans were acquired (experiment time 4 min.). The spectral width was set to 16.66 ppm.
Details WLOGSY experiment: For the WLOGSY-spectrum, a total of 1024 complex points in f1 (^1H) with 256 scans were acquired (experiment time 25 min.). The carrier frequency for ^1H was set at the water resonance (˜4.7 ppm). The spectral width was set to 16.66 ppm in the direct dimension (^1H).
Details STD experiment: For the STD-spectrum, a total of 1024 complex points in f1 (^1H) with 1024 scans were acquired (experiment time 65 min.). The carrier frequency for ^1H was set at the water resonance (˜4.7 ppm). The spectral width was set to 16.66 ppm in the direct dimension (^1H). For the on-resonance experiments saturation is set to 2.0 sec at a saturation frequency of −2500 Hz. For the off-resonance experiment saturation frequency is set at 10200 Hz.
Python scripts were used to process all recorded spectra in the assay setup, screening and deconvolution process. Spectra were analyzed for direct binding signals of the compounds. Identified single compound hits were reported.

[2] = tested on: RNA3WJ_0.0.0_5IB_3FAM (3WJ_0.0.0_5IB_3FAM RNA construct); assay: Thermal shift binding assay; details: for Melt. Temp. with cmpd / Shift melt. Temp.: RNA sequence 3WJ_0.0.0_5IB_FAM; for Melt. Temp. with cmpd: melting temperature in presence of compound; for Shift melt. Temp.: with cmpd minus without cmpd
From the text: (§1) Purpose: Test binding of compounds for RNA three way junction (for example, a construct of 38 nt). Thermal shift assay based on established fluorescence quenching assay utilizing FAM as fluorescence tag and Iowa Black as quencher. Tags were attached at the 3′ and 5′ end, respectively. Stable formation of 3WJ upon compound binding would lead to quenching of the FAM fluorescence due to close proximity of the Iowa Black tag. Thermal unfolding leads to increase of fluorescence emission. Assay readout: FAM (465-510 nm) Thermal Shift.
(§2) Assay sample buffer used: 10 mM CacoK pH 7.2, 30 mM NaCl. Buffer preparation in Dnase/Rnase Free distilled water (Gibco Life Technologies).
(§3) Dilute the RNA 1:10 (final 10 μM) in Assay Buffer.
(§4) Heat up the diluted RNA up to 90° C. for 5 min (sealed Eppendorf Tube).
(§5) Cool down the RNA probe slowly to RT.
(§6) Dilute the compounds to 800 μM in DMSO (Assay: 8 μM). […]
(§7) Pipet 20 μL Sample Solution into Roche, Light Cycler480 Multiwell Plate96, white, REF 04729692001.
(§8) Measure the 96 plate with the LightCycler480 (Channel: 480/510 nm; Temperature: 41-91° C.).
(§9) Analyse measurement-data with the MeltingCurveGenotyping Mode.
(§10) Settings: Acquisition mode: continuous; Ramp rate: 0.1° C./sec; Acquisition: 6° C.
(§11) Curves are fitted with raw and normalized data.
(§12) Melting curves analysis show melting temperature (Tm) of ˜51° C. Range of RNA concentrations was tested and assay window was determined (conc. range of 0.5-1 μM yields best results). The choice of buffer also affected the Tm. RNA constructs were tested under different buffer conditions (especially in presence of salt) in the thermal shift assay. […] CacoK with 30 mM salt at 1 μM RNA conc. was used to assess compound effects on 3WJ stability. […] These conditions were used for screening test compounds.

[3] = tested on: 3WJ_0.0.0_5IB_3FAM RNA construct; assay: Fluorescence quenching binding assay (FAM / Iowa Black); details: concentration dependent; effect at conc. >5 μM
Description: This assay will be used to test binding of compounds for RNA three way junction (such as a 38 nt construct). This is a fluorescence quenching assay utilizing FAM as fluorescence tag and Iowa Black as quencher. Tags are attached at the 3′ and 5′ end, respectively. Stable formation of MW upon compound binding would lead to quenching of the FAM fluorescence due to close proximity of the Iowa Black tag. Assay readout: FAM (485-520 nm) Fluorescence Intensity.
as §2, §3, §4, §5
(§13) Dilute the compounds to 800 μM in DMSO (Assay: 8 μM).
Final concentrations in the sample: 1-10 μM RNA, 8 μM compound, 1% DMSO
Pipet 25 μL Sample Solution into Greiner cat #784076, black, 384
Measure the 96 plate with the LightCycler480 (Channel: 485/520 nm).
Calibration of the expected fluorescence signal at various RNA concentrations in either CacoK or NaPO4 buffers was performed first. Experiments in buffers containing salt show distinct fluorescence quenching behavior. […]
First, two compounds (i.e. Ark000007 & Ark000008) were tested in the fluorescence quenching assay to assess concentration dependent influence on the fluorescence signal.

[4] = tested on: RNA3WJ_1.0.0_5IB_3FAM (cis 3WJ with one unpaired nucleotide); assay: Thermal shift binding assay; details: RNA:ligand ratios 1:1, 1:3
From the text: as §1, §2, §3, §4, §5, §13
Final concentrations in the sample: 1 μM RNA, 8 μM compound, 1% DMSO
as §7, §8, §9, §10, §11, §12
Compounds Ark0000013 and Ark0000014 were also tested in the thermal shift assay against three RNA 3WJ constructs, A) RNA3WJ_1.0.0_5IB_3FAM (cis 3WJ with one unpaired nucleotide); B) Split3WJ.1_up_5IB+Split3WJ.1_down_3FAM (trans 3WJ as 1:1 mix); and C) Split3WJ.2_up_5IB+Split3WJ.2_down_3FAM (trans 3WJ as 1:1 mix).

RNA3WJ_3.0.0_5IB_3FAM = assay: Thermal shift binding assay; details: RNA:ligand ratios 1:1, 1:3
From the text: as §1, §2, §3, §4, §5, §6, §7, §8, §9, §10, §11, §12

[5] = competitor HP-AC008002-E01 200-400 μM (up to 1:4)
[6] = 1 μM RNA, 8 μM compound, 10 mM CacoK pH 7.2, 30 mM NaCl

Row | SMILES | STD signal [1] | Melt. Temp. with cmpd [2] [°C] | Shift melt. Temp. [2] | also measured
1 | CC(O)CNCc1ccc(-c2ccccc2)o1 (stereo not shown) [HP-AT005003-C03] | distinct | – | – | WaterLOGSY signals in the presence of competitor (41CAG RNA (476 nt); [5]): still observed
2 | [N-]=[N+]=NC[C@H]1O[C@H](O[C@@H]2[C@@H](O)[C@H](O[C@H]3O[C@H](CN)[C@@H](O)[C@H](O)[C@H]3O)[C@@H](N)C[C@H]2N)[C@H](O)[C@@H](N)[C@@H]1O [Ark000007, 6″-Azido-Kanamycin a Hydrochloride Salt] | – | 65.6 | +4.4 °C | Melting temp + cmpd [2, 6]: 65.6 °C; Temp. Shift [2, 6]: ~5 °C; fluorescence quenching effect (FAM fluorescence signal) [3]: increase of quenching effect
3 | O=C(c1ccc(Cl)cc1)N1CCN(c2ccc([N+](=O)[O-])c3ncccc23)CC1 [CPNQ, reference compound] | distinct | – | – | –
4 | Cc1nn(-c2ccccc2)nc1CN [HP-AC008001-E02] | distinct | – | – | WaterLOGSY signals in the presence of competitor (41CAG RNA (476 nt); [5]): still observed; WaterLOGSY signals in the presence of competitor (41CAG RNA (476 nt); competitor HP-AT005003-C03 200-400 μM (up to 1:4)): still observed
5 | OCc1cccc(-c2cccnc2)c1 [HP-AC008002-E01] | distinct | – | – | WaterLOGSY signals in the presence of competitor (41CAG RNA (476 nt); competitor HP-AC008001-E02 or HP-AT005003-C03 200-400 μM (up to 1:4)): still observed
6 | NCc1ccc2ccccc2n1 [HP-AC008004-C07] | weak | – | – | –
7 | C#CCCCC(=O)NC[C@H]1O[C@H](O[C@H]2[C@H](O)[C@@H](O[C@H]3O[C@H](CO)[C@@H](O)[C@H](N)[C@H]3O)[C@H](N)C[C@@H]2N)[C@H](O)[C@@H](O)[C@@H]1O [Ark000008] | – | 61.8 | +0.6 °C | effect on melting temperature (in words) ([2]; 1 μM RNA, 8 μM compound): only a very small effect; fluorescence quenching effect (FAM fluorescence signal) [3]: Only Ark000007 showed an increase of quenching effect
8 | C#CCCCC(=O)NC[C@H]1O[C@H](O[C@H]2[C@H](O)[C@@H](O[C@H]3O[C@H](CN=[N+]=[N-])[C@@H](O)[C@H](N)[C@H]3O)[C@H](N)C[C@@H]2N)[C@H](O)[C@@H](O)[C@@H]1O [ARK000009] | – | 62.9 | +0.6 °C | –
9 | CN(CCCN)CCCNC(=O)c1ccccc1 [Ark000039] | – | 60.3 | −1.2 °C | effect in the melting curves (raw and normalized data) [4]: lack of effect; effect in the melting curves (raw and normalized data) (RNA3WJ_3.0.0_5IB_3FAM): lack of effect; effect in the melting curves (raw and normalized data) ([2]; RNA:ligand ratios 1:1, 1:3): no significant effect
